Measured values reported in patent US6420131B1, “Use of fluorescein aryl ethers in high throughput cytochrome P450 inhibition assays” (Gentest Corporation, priority 1999, dated 2002).

What was measured:
[1] = tested on: panel of Human P450 enzymes; assay: Specificity of dealkylation of CMFDE and MF by a panel of human P450 enzymes; type: biochemical; settings: CYP1A1 and CYP2C19; 1 uM substrate
[2] = tested on: panel of Human P450 enzymes; assay: Substrate specificity, dealkylation of Compounds Ia and Ib by a panel of human P450 enzymes; type: biochemical; settings: various P450s
Description: The specificity of several cytochrome P450 enzymes for the dealkylation of Compound Ia (FIG. 1) and Compound Ib (FIG. 2) was examined.
Example Compounds Ia and Ib. […] Final incubation volume was 0.2 ml.

human CYP3A4 [3] = molecular target: T1, human CYP3A4 (Homo sapiens, UniProt P08684); settings: for Range: human
Rat CYP1A1 = molecular target: T2, Rat CYP1A1 (Rattus norvegicus, UniProt P00185); assay: Turnover of fluorometric substrates by rat CYP1A1; settings: substrate uM: Ia 2, AMMC 20, CEC 40, MFC 50, BFC 50, BQ 40, BzRes 50; 30 min; enzyme 50 nM (2.5 nM for CEC)
T2 sequence (P00185 1-524): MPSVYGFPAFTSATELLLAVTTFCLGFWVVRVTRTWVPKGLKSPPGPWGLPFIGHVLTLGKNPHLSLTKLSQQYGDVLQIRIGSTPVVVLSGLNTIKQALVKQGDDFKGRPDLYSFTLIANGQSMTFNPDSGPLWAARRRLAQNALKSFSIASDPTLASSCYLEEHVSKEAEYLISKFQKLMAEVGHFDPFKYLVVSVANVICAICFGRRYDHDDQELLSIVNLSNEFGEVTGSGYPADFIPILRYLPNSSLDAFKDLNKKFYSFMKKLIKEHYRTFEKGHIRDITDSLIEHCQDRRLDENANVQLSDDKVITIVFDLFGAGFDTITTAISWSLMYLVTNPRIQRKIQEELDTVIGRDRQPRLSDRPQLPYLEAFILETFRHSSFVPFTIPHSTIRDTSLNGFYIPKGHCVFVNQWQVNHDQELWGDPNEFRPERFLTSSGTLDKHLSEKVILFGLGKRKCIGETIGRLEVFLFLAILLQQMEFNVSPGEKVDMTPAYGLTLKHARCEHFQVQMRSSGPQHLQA

Rat CYP2D2 = molecular target: T3, Rat CYP2D2 (Rattus norvegicus, UniProt P10634); assay: Turnover of fluorometric substrates by rat CYP2D2
T3 sequence (P10634 1-500): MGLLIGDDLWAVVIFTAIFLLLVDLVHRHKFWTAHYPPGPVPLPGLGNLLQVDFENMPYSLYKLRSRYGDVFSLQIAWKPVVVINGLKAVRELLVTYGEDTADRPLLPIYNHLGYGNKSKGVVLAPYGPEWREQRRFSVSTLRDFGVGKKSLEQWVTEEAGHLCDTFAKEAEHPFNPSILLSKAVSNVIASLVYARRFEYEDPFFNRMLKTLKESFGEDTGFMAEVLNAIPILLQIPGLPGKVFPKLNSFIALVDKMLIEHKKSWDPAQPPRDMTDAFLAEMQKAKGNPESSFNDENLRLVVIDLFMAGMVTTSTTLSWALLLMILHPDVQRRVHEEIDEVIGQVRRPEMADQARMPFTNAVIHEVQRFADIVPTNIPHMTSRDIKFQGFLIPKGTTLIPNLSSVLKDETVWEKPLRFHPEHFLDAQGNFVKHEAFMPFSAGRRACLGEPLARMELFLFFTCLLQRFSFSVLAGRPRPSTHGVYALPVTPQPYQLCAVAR

CYP2C8 [4] = molecular target: T4, CYP2C8 (Homo sapiens, UniProt P10632)
T4 sequence (P10632 1-490): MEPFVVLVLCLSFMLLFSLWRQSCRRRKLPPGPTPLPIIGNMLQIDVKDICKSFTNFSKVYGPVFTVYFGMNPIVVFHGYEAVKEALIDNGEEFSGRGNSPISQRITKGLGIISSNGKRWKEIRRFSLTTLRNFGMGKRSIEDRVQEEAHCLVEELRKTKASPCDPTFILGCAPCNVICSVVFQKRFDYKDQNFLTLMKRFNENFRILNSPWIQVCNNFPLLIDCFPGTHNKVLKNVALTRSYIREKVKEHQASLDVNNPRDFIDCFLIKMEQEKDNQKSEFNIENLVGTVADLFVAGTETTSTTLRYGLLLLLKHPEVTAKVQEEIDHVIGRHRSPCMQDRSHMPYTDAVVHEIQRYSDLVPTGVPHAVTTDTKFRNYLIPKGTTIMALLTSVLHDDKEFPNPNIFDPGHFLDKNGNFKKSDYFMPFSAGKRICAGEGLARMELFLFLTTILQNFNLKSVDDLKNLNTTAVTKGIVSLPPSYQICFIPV

human CYP3A4 [5] = molecular target: T1, human CYP3A4; assay: High throughput cytochrome P450 inhibition screen, CYP3A4; settings: Absolute Mean IC50 Values
CYP2C8 [6] = molecular target: T4, CYP2C8; assay: High throughput cytochrome P450 inhibition screen, CYP2C8, compound Ia as substrate
[7] = substrate: O=C(OCc1ccccc1)c1ccccc1-c1c2ccc(=O)cc-2oc2cc(OCc3ccccc3)ccc12; assay: Enzyme kinetics of substrate turnover by cDNA-expressed CYP2C8; type: biochemical, human; settings: other: CYP2C8
Description: The evaluation of compounds of Formula I were performed by measuring the kinetics of turnover using cDNA-expressed cytochromes P450 CYP3A4 and CYP2C8. Vmax and Km values are important for the optimization of the assay conditions and for setting the parameters for inhibition experiments.
Example Compound Ia. […] Final incubation volume was 0.2 ml. […] The activity was quantitated by comparing to a standard curve of fluorescein. Apparent Km and Vmax values were calculated by non-linear regression using SigmaPlot software.

T1 sequence (P08684 whole entry): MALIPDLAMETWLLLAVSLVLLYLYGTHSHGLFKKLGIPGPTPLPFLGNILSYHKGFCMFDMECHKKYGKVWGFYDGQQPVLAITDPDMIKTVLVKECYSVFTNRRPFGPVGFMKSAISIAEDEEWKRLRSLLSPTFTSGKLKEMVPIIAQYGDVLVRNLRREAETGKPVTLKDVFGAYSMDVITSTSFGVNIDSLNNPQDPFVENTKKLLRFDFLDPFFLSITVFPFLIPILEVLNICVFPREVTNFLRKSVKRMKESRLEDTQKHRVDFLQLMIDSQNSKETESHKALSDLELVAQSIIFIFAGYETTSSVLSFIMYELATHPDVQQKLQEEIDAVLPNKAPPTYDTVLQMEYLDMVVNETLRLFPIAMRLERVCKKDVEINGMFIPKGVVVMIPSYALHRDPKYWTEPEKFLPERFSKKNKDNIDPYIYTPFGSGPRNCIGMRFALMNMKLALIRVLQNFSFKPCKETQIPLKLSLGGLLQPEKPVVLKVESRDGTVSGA

COc1ccc2c(c1)Oc1cc(O)ccc1C21OC(=O)c2ccccc21 (centres unmarked) [MF, 3-O-methylfluorescein]
substrate quality based on turnover number [1]: good P450 substrate

O=C(O)c1ccccc1-c1c2ccc(=O)cc-2oc2cc(OCc3ccccc3)ccc12 [Compound Ib, Monobenzyl Fluorescein]
signal as a substrate [2]: substantially less signal versus Compound Ia

COCC(=O)O[C@]1(CCN(C)CCCc2nc3ccccc3[nH]2)CCc2cc(F)ccc2[C@@H]1C(C)C [Mibefradil]
Range (human CYP3A4 [3]): 12

Clc1ccc(COC(Cn2ccnc2)c2ccc(Cl)cc2Cl)c(Cl)c1 (centres unmarked) [Miconazole]
Range (human CYP3A4 [3]): 11

Clc1ccccc1C(c1ccccc1)(c1ccccc1)n1ccnc1 [Clotrimazole]
Range (human CYP3A4 [3]): 7.9

Cc1ncc2n1-c1ccc(Cl)cc1C(c1ccccc1F)=NC2 [Midazolam]
Range (human CYP3A4 [3]): 48

CC[N+](C)(CC)CCc1c(C)c2ccc(OC)cc2oc1=O [AMMC, 3-[2-(N,N-Diethyl-N-methylamino)ethyl]-7-methoxy-4-methylcoumarin]
Turnover Numbers, CYP1A1 (Rat CYP1A1): —^b | substrate utilization (Rat CYP2D2; CYP2D2/AMMC, conditions of Table VI): 45% | Turnover Numbers, CYP2D2 (Rat CYP2D2; substrate uM: Ia 2, AMMC 20, CEC 40, MFC 50, BFC 50, BQ 40, BzRes 50, 30 min, enzyme 50 nM): 5.9 pmol product/min/pmol enzyme

Nc1ccc(S(=O)(=O)Nc2ccnn2-c2ccccc2)cc1 [sulfaphenazole]
IC50 (CYP2C8 [4]): elevated

C#C[C@]1(O)CC[C@H]2[C@@H]3CCc4cc(O)ccc4[C@H]3CC[C@@]21C [Ethynylestradiol]
Range (human CYP3A4 [3]): 4.5

NC(=O)N1c2ccccc2C=Cc2ccccc21 [Carbamazepine]
Range (human CYP3A4 [3]): 5.3

CC(=O)[C@H]1CC[C@H]2[C@@H]3CCC4=CC(=O)CC[C@]4(C)[C@H]3CC[C@]12C [Progesterone]
IC50 (human CYP3A4 [5]; BQ, substrate BQ): > 200 µM | IC50 (human CYP3A4 [5]; Ia, substrate compound Ia): 11.5 µM | Absolute Mean IC50 Values, BFC (human CYP3A4 [3]): Activation | Absolute Mean IC50 Values, BzRes (human CYP3A4 [3]): Activation

CC(=O)O[C@H]1C(=O)[C@@]2(C)[C@H]([C@H](OC(=O)c3ccccc3)[C@]3(O)C[C@H](OC(=O)[C@H](O)[C@@H](NC(=O)c4ccccc4)c4ccccc4)C(C)=C1C3(C)C)[C@]1(OC(C)=O)CO[C@@H]1C[C@@H]2O [paclitaxel]
inhibition of the turnover of compound Ia (CYP2C8 [6]): inhibited the turnover of compound Ia

CC[C@H]1OC(=O)[C@H](C)[C@@H](O[C@H]2C[C@@](C)(OC)[C@@H](O)[C@H](C)O2)[C@H](C)[C@@H](O[C@@H]2O[C@H](C)C[C@H](N(C)C)[C@H]2O)[C@](C)(O)C[C@@H](C)C(=O)[C@H](C)[C@@H](O)[C@]1(C)O [Erythromycin]
IC50 (human CYP3A4 [5]; BFC, substrate BFC): 4.5 µM | IC50 (human CYP3A4 [5]; BQ, substrate BQ): 54.4 µM | IC50 (human CYP3A4 [5]; BzRes, substrate BzRes): 1.8 µM | IC50 (human CYP3A4 [5]; Overall, mean over the substrates BzRes, BQ, BFC, Ia): 21.5 µM

B1: CYP2C8 (Homo sapiens) (protein)
chain: MEPFVVLVLCLSFMLLFSLWRQSCRRRKLPPGPTPLPIIGNMLQIDVKDICKSFTNFSKVYGPVFTVYFGMNPIVVFHGYEAVKEALIDNGEEFSGRGNSPISQRITKGLGIISSNGKRWKEIRRFSLTTLRNFGMGKRSIEDRVQEEAHCLVEELRKTKASPCDPTFILGCAPCNVICSVVFQKRFDYKDQNFLTLMKRFNENFRILNSPWIQVCNNFPLLIDCFPGTHNKVLKNVALTRSYIREKVKEHQASLDVNNPRDFIDCFLIKMEQEKDNQKSEFNIENLVGTVADLFVAGTETTSTTLRYGLLLLLKHPEVTAKVQEEIDHVIGRHRSPCMQDRSHMPYTDAVVHEIQRYSDLVPTGVPHAVTTDTKFRNYLIPKGTTIMALLTSVLHDDKEFPNPNIFDPGHFLDKNGNFKKSDYFMPFSAGKRICAGEGLARMELFLFLTTILQNFNLKSVDDLKNLNTTAVTKGIVSLPPSYQICFIPV
notes: purchased GENTEST Corporation; host or cells: baculovirus/insect cells (microsomes, SUPERSOMES)
Km [7]: 1.4 µM | kcat [7]: 0.00367 s⁻¹
